Assay results published in patent publication US5716982A, “Retinoids and methods of use of same” (priority 1995, dated 1998).
Read-outs that look alike come from different tables or passages of the source.

Assays:
[1] = tested on: Ornithine decarboxylase (ODC); experiment: Croton oil induced ornithine decarboxylase (ODC) activity in mouse epidermis; assay type: in vivo; conditions: single dose pretreatment, FIG. 1 (x±SD, n=3)
Method: ICR mice (6-8 weeks old) were pretreated with a single dose of coumarin retinoid. On the third day, the animals received a topical application of 0.2 ml of 1% croton oil in acetone. All animals were sacrificed five hours after the croton oil treatment and the epidermis was separated by a brief heat treatment at 52° C. for 30 seconds and minced in a blender. The cell suspension and broth were separated by a centrifugation at 30,000×g for 30 seconds and the supernatant was obtained. Ornithine decarboxylase (ODC) enzyme activity was determined by measuring the release of CO2 from L-(^14 C)-ornithine and expressed as nmole CO2 /30 min/mg protein and the results for coumarin retinoid I-10 and I-6 are shown in FIG. 1. […] ODC activity is a critical parameter for monitoring cancer chemoprevention or promotion.

[2] = tested on: bone abnormalities in mouse fetus; experiment: Bone abnormalities in mouse fetus (anti-teratogenicity); assay type: in vivo
Method: (§1) Female mice were examined by vaginal smear the morning after being caged with male mice, and if sperm or a vaginal plug was discovered, then the mice were determined to be pregnant. The retinoids were administered at the dosage indicated starting on the seventh day of pregnancy and continued once a day for the next ten days. On the 20th day after the female mice were determined to be pregnant, they were sacrificed by cervical dislocation. Both sides of the uterus were checked and the number of living embryos, dead embryos, and absorbed embryos were counted. The living embryos were further examined for bone abnormalities.
After the embryos became transparent, they were dissected and their skeletons were checked by observation under a microscope.

chondrosarcoma in rats = experiment: Growth of transplanted chondrosarcoma in rats; assay type: in vivo, rat
From the text: Transplantable chondrosarcomas obtained from Dr. Trown, Hoffman--La Roche Institute of Molecular Biology and Wistar rats obtained from the Breeding Center of Experimental Animals, Chinese Academy of Medical Sciences were used. According to the routine transplantation protocol as described in Cancer Treatment Reports 60(11):1647-1653 (1976) where the small pieces of chondrosarcoma tumor were implanted subcutaneously in the right inguinal region of rats using a trocar. Tumor-bearing rats were randomized to a control group and a treated group. Each group consisted of ten rats. The compound was given orally for 12 days at the indicated dosage. Sixty days after transplantation, the rats were sacrificed and the tumor weight was determined. The inhibition rate was calculated according to the following formula: [formula]

[3] = tested on: Human promyelocytic leukemia HL-60 cells; experiment: Cell differentiation of HL-60 cells, nitroblue tetrazolium (NBT) reduction; assay type: cell-based; conditions: Homo sapiens
Method: Human promyelocytic leukemia HL-60 cells were cultured in RPMI-1640 medium supplemented by 10% heat-inactivated calf serum and 100 U/ml of penicillin plus 100 μg/ml of streptomycin. The flasks containing cells and medium were incubated in an incubator with 5% CO2 at 37° C. Log phase cells were seeded into the medium at a concentration of 1.2×10^5to 1.4×10^5 cells per ml and cultured in flasks containing 5 ml of medium. Each group consisted of three flasks. Different concentrations of coumarin-retinoids were added. At intervals following the addition of coumarin-retinoids to the cultures, a small portion of cells was removed and live cells were counted under a light microscope using a dye-exclusionmethod with trypan blue. Cell differentiation was judged in terms of morphology and nitroblue tetrazolium (NBT) reduction.
For a determination of NBT reducing activity, a portion of the coumarin-retinoid-treated cells was removed at intervals following treatment and centrifuged. After centrifugation, 0.5 ml of 0.1% NBT (containing 100 ng TPA) was added to each tube. The contents of the test tubes were then incubated for 1 hour at 37° C. Cell smears were prepared from the cell sediment and stained using the Wright-Giemsa technique. For each smear prepared, 200 cells were isolated for examination under a light microscope with an oil immersion lens. Cells stained with blue-black granules were considered NBT-positive cells. The 50% differentiation or effective concentration (ED50 or EC50) is shown in terms of molar (M) concentration of the […] tested.
(§2) The protocols of Examples 14 and 21 were used, for the NBT and MTT assays, respectively.

[4] = Preuss-Ueberschar et al. 1984; cited from earlier work
[5] = tested on: human acute myeloid leukemia (AML), neuroblastoma, teratocarcinoma, melanoma, and rat rhabdomyosarcoma cells; conditions: Smith et al. 1992; cited from earlier work
fetus absorption in mice = experiment: Fetus absorption in mice (anti-teratogenicity); assay type: in vivo, mouse
Method: as §1

HCT-8 cell line = experiment: MTT assay in HCT-8 cells; assay type: cell-based; conditions: Homo sapiens, HCT-8, 120 h; read-out: MTT ED50
BEL 7402 cell line = experiment: MTT assay in BEL 7402 cells; assay type: cell-based; conditions: Homo sapiens, Bel-7402, 120 h; Bel7402; read-out: MTT ED50
A2780 cell line = experiment: MTT assay in A2780 cells; assay type: cell-based; conditions: Homo sapiens, A2780, 120 h; read-out: MTT ED50
Method: (§3) Human cancer cell lines (KB, A2780, MCF-7, HL-60, A549) were used. For a monolayer culture, 0.5 ml of trypsin solution ([…]) was added to the flasks for digestion. Microtiter plates (96 well) were used for the cell culture and 200 μl of cell suspension (1200 tumor cells) were placed in each well and incubated at 37° C. for 24 hours. Following the addition of the test compound, the control and treated flasks were placed in a CO2 incubator for 5 day culture. For the MTT assay, 200 μl of MTT solution (5 mg in 10 ml of phosphate buffer) plus the medium were added and incubated for another 4 hours. Following incubation, the supernatant was discarded and 200 μl of DMSO was added to each well. With a mild agitation the OD values were determined by the MR 700 Elisa at 570 nm (reference wavelength was 450 nm). The ED50 of the compound and tumor cell survival rate [formula] as percent inhibition were calculated.
as §2

KB cell line = experiment: MTT assay in KB cells; assay type: cell-based; conditions: Homo sapiens, 120 h, read-out: MTT ED50
Method: as §3, §2

melanoma cell growth = conditions: Jing et al. 1992; cited from earlier work
HL-60 cells = experiment: MTT assay in HL-60 cells; assay type: cell-based, human; conditions: Homo sapiens, MTT
Method: as §3, §2

[6] = tested on: lipid peroxidation of rat liver microsome; experiment: Fe/Cys induced lipid peroxidation of rat liver microsome (anti-oxidation); assay type: biochemical; conditions: n = 3
Method: Lipid peroxidation was induced by adding 1 mM FeSO4 and 10 mM cysteine to the microsome fraction of rat liver with the incubations being carried out at 37° C. for 30 minutes in a reaction mixture containing 10 mM phosphate buffer (pH 7.4). The reaction was terminated by the addition of 0.3 ml of 20% trichloroacetic acid solution. Thiobarbituric acid was then added and the mixture was boiled for 10 minutes. After cooling the test tubes under running tap water, the optical density at 532 nm was measured. Lipid peroxidation in both the treated groups and the control group was expressed in nmol MDA/mg protein. The percentage inhibition indicates the anti-oxidation properties of the coumarin retinoids tested.

[7] = tested on: Salmonella typhimurium strain TA100; experiment: Anti-mutagenicity (Ames), MMS-induced his+ revertants, TA100; assay type: cell-based; conditions: MMS 0.5 μl/plate; for his+ -revertants/per plate, TA100: n = 3
Method: (§4) An antimutagenicity assay was conducted according to the method developed by Ames et al. using Salmonella typhimurium strains TA 102 and TA 100 and mammalian microsomal enzymes. Beta-naphthoflavone and phenobarbital-induced rat liver supernatant (9000×g S-9 fraction) was used as the enzyme source for metabolic activation. The night before the experiment, certified bacterial solution (assessed for its biological characteristics and donated by Professor Ames) was inoculated into petri dishes. The petri dishes were then incubated for 15 hours at 37° C. From each petri dish, 0.1 ml of the bacterial solution was removed and added to sterile test tubes. To these test tubes, 0.1 ml of different concentrations of coumarin retinoids and 0.5 ml of either S-9 mixed solution or phosphate buffer were then added. The final solution for each test tube was incubated in a water bath at 37° C. for 20 minutes before adding 2 ml of agar solution. After thorough mixing, the solution was transferred into petri dishes and incubated once again at 37° C. for 48 hours. After incubation, the number of colonies in each petri dish were counted. The revertant numbers of the bacteria in control and treated groups were compared and the inhibition rate was calculated.

[8] = tested on: Salmonella typhimurium strain TA102; experiment: Anti-mutagenicity (Ames), MMS-induced his+ revertants, TA102; assay type: cell-based; conditions: MMS 0.5 μl/plate; for his+ -revertants/per plate, TA102: n = 3
Method: as §4

[9] = NBT reduction, 50% differentiation, HL-60 (Table 2), read-out: EC50
[10] = HL-60 (Table 16), read-out: NBT

SMILES: CC(=O)c1cc2c(OC(=O)/C=C(C)/C=C/C=C(C)/C=C/C3=C(C)CCCC3(C)C)cc(OC(=O)/C=C(C)/C=C/C=C(C)/C=C/C3=C(C)CCCC3(C)C)cc2oc1=O [Compound I-10]
- inhibition of croton oil induced ODC activity [1]: significantly inhibited the ODC activity induced by croton oil
- Delayed Calcification, Occipital delay/fetus ([2]; 20 mg/kg): 22/66
- Delayed Calcification, Sternum delay/fetus ([2]; 20 mg/kg): 14/66
- Delayed Calcification, Occipital delay/fetus ([2]; 40 mg/kg): 15/81
- Delayed Calcification, Sternum delay/fetus ([2]; 40 mg/kg): 21/81
- Animals, final (chondrosarcoma in rats; 5 mg/kg p.o., 12 days, 10 animals initial): 10
- Inhibition rate (%) (chondrosarcoma in rats; 10 mg/kg p.o.): 9.8%
- Animals, final (chondrosarcoma in rats; 10 mg/kg p.o., 12 days, 10 animals initial): 9
- Animals, final (chondrosarcoma in rats; 20 mg/kg p.o., 12 days, 10 animals initial): 9
- Inhibition rate (%) (chondrosarcoma in rats; 20 mg/kg p.o., P < 0.05): 42.2%
- EC50 [3, 9]: 0.013 µM

SMILES: O=c1ccc2ccccc2o1 [coumarin]
- teratogenicity [4]: not teratogenic

SMILES: CC1=C(/C=C/C(C)=C/C=C/C(C)=C/C(=O)O)C(C)(C)CCC1 [All Trans RA, all-trans-retinoic acid, reference compound]
- Delayed Calcification, Occipital number/fetus number ([2]; 10 mg/kg): 16/16
- Delayed Calcification, Sternum number/fetus number ([2]; 10 mg/kg): 16/16
- Cleft Palate (%) ([2]; 15 mg/kg): 48%
- Delayed Calcification (%), Occipital ([2]; 15 mg/kg): 96.0%
- Delayed Calcification (%), Sternum ([2]; 15 mg/kg): 71.0%
- Delayed Calcification, Occipital delay/fetus ([2]; 101 mg/kg (so in the source)): 6/16
- Delayed Calcification, Sternum delay/fetus ([2]; 101 mg/kg (so in the source)): 16/16
- cell differentiation [5]: induces cell differentiation in some human acute myeloid leukemia (AML), neuroblastoma, teratocarcinoma, melanoma, and rat rhabdomyosarcoma cells
- Implanted Number (fetus absorption in mice; 15 mg/kg, 15 pregnant mice): 186

SMILES: CC1=C(/C=C/C(C)=C/C=C/C(C)=C/C(=O)n2cnc3c(=O)[nH]c(N)nc32)C(C)(C)CCC1 [II-F]
- IC50 (HCT-8 cell line): > 10 µM
- IC50 (BEL 7402 cell line): > 10 µM
- EC50 [3, 10]: > 10 µM
- IC50 (A2780 cell line): > 10 µM
- IC50 (KB cell line): > 10 µM

SMILES: O=c1c(-c2ccc(O)cc2)coc2cc(O)ccc12 [diadzein]
- melanoma cell growth (melanoma cell growth): inhibits melanoma cell growth

SMILES: CC1=C(/C=C/C(C)=C/C=C/C(C)=C/C(=O)Nc2nc3c(ncn3C(=O)/C=C(C)/C=C/C=C(C)/C=C/C3=C(C)CCCC3(C)C)c(=O)[nH]2)C(C)(C)CCC1 [II-D]
- IC50 (HCT-8 cell line): 4 µM
- IC50 (BEL 7402 cell line): 5 µM
- EC50 [3, 10]: > 10 µM
- IC50 (A2780 cell line): > 10 µM
- IC50 (KB cell line): > 10 µM

SMILES: CC1=C(/C=C/C(C)=C/C=C/C(C)=C/C(=O)Nc2ncnc3c2ncn3C(=O)/C=C(C)/C=C/C=C(C)/C=C/C2=C(C)CCCC2(C)C)C(C)(C)CCC1 [II-A]
- Cleft Palate (%) ([2]; 20 mg/kg): 0%
- Delayed Calcification (%), Occipital ([2]; 20 mg/kg): 7.6%
- Delayed Calcification (%), Sternum ([2]; 20 mg/kg): 9.0%
- Cleft Palate (%) ([2]; 40 mg/kg): 0%
- Delayed Calcification (%), Occipital ([2]; 40 mg/kg): 7.2%
- Delayed Calcification (%), Sternum ([2]; 40 mg/kg): 7.2%
- Inhibition rate (%) (chondrosarcoma in rats; 2 mg/kg ×10): 49.5%
- Tumor Weight (chondrosarcoma in rats; 2 mg/kg ×10): 5.4 grams
- Animals, final (chondrosarcoma in rats; 2 mg/kg ×10, 10 animals initial): 9
- Animals, final (chondrosarcoma in rats; 5 mg/kg ×10, 10 animals initial): 9
- Implanted Number (fetus absorption in mice; 20 mg/kg, 12 pregnant mice): 141
- Absorbed Number (fetus absorption in mice; 20 mg/kg, 12 pregnant mice, 141 implanted): 10
- Implanted Number (fetus absorption in mice; 40 mg/kg, 15 pregnant mice): 181
- Absorbed Number (fetus absorption in mice; 40 mg/kg, 15 pregnant mice, 181 implanted): 17

SMILES: CC(=O)c1cc2ccc(OC(=O)/C=C(C)/C=C/C=C(C)/C=C/C3=C(C)CCCC3(C)C)c(C(=O)O)c2oc1=O [Compound I-5]
- IC50 (HL-60 cells; 120 h, HL-60 (Table 12), read-out: ED50 (the source's name)): 8.5 µM
- inhibition at 10 µM (HL-60 cells; 10^-5 M, HL-60): 51.6%
- inhibition at 1 µM (HL-60 cells; 10^-6 M, HL-60): 34 ± 7.1%
- inhibition at 0.1 µM (HL-60 cells; 10^-7 M, HL-60): 11.5 ± 4.2%
- Lipid Peroxidation ([6]; 1 μM): 2.19 ± 0.13 μM MDA/mg protein
- EC50 [3, 9]: 0.28 µM

SMILES: CC(=O)c1cc2cc(Cl)c(OC(=O)/C=C(C)/C=C/C=C(C)/C=C/C3=C(C)CCCC3(C)C)cc2oc1=O [Compound I-6]
- inhibition of croton oil induced ODC activity [1]: significantly inhibited the ODC activity induced by croton oil
- Inhibition (%), TA100 ([7]; 0.1 mg/plate): 12.8%
- his+ -revertants/per plate, TA100 ([7]; 0.1 mg/plate): 971.3 ± 102.7 revertants/per plate
- Inhibition (%), TA100 ([7]; 0.5 mg/plate): 15.5%
- his+ -revertants/per plate, TA100 ([7]; 0.5 mg/plate): 947.3 ± 60.3 revertants/per plate
- Lipid Peroxidation ([6]; 2 μM): 2.16 ± 0.18 μM MDA/mg protein
- Lipid Peroxidation ([6]; 20 μM): 2.13 ± 0.19 μM MDA/mg protein
- EC50 [3, 9]: 0.6 µM
- Inhibition (%), TA102 ([8]; 0.1 mg/plate): 13.8%
- his+ -revertants/per plate, TA102 ([8]; 0.1 mg/plate): 1560 ± 40.0 revertants/per plate
- Inhibition (%), TA102 ([8]; 0.5 mg/plate): 26.6%
- his+ -revertants/per plate, TA102 ([8]; 0.5 mg/plate): 1375 ± 241.5 revertants/per plate
